# Data reported in ChEMBL document CHEMBL3124913, “Sinugyrosanolide A, an unprecedented C-4 norcembranoid, from the Formosan soft coral Sinularia gyrosa” (Bioorg Med Chem Lett, 2014).
# The source made the active and inactive calls. The rule behind the calls is not given here.
# Columns and labels:
# [1] = system: A549; experiment: Cytotoxicity against human A549 cells by MTT assay; assay type: functional, cell-based
# [2] = system: HT-29; experiment: Cytotoxicity against human HT-29 cells by MTT assay; assay type: functional, cell-based
# [3] = system: P388; experiment: Cytotoxicity against mouse P388 cells by MTT assay; assay type: functional, cell-based
# [4] = system: Klebsiella aerogenes; experiment: Antibacterial activity against Enterobacter aerogenes ATCC 13048 at 100 ug/ml after 24 hrs; assay type: functional, organism-based
# [5] = system: Salmonella enteritidis; experiment: Antibacterial activity against Salmonella enteritidis ATCC 13076 at 100 ug/ml after 24 hrs; assay type: functional, organism-based; conditions: Salmonella enterica subsp. enterica serovar Enteritidis
# [6] = system: Serratia marcescens; experiment: Antibacterial activity against Serratia marcescens ATCC 25419 at 100 ug/ml after 24 hrs; assay type: functional, organism-based
# [7] = system: Human betaherpesvirus 5; experiment: Antiviral activity against Human cytomegalovirus infected in Human HEL cells assessed as virus-induced cytopathic effect at 1 ug/ml treated 1 hr prior to infection measured after 7 days; assay type: functional, organism-based
# [8] = system: Human betaherpesvirus 5; experiment: Antiviral activity against Human cytomegalovirus infected in Human HEL cells assessed as virus-induced cytopathic effect treated 1 hr prior to infection measured after 7 days; assay type: functional, organism-based; conditions: Human betaherpesvirus 5, HEL
# [9] = system: Yersinia enterocolitica; experiment: Antibacterial activity against Yersinia enterocolitica ATCC 23715 at 100 ug/ml after 24 hrs; assay type: functional, organism-based
# [10] = system: Shigella sonnei; experiment: Antibacterial activity against Shigella sonnei ATCC 11060 at 100 ug/ml after 24 hrs; assay type: functional, organism-based
EC50 [8] [µg/mL],SMILES,EC50 [1] [nM],EC50 [2] [nM],EC50 [3] [nM],Activity [4],Activity [5],Activity [6],Activity [7],Activity [9],Activity [10]
–,CO[C@H](C(=O)[C@@H](O)[C@@H](C)O)[C@@H]1Cc2cc3cc(O[C@H]4C[C@@H](O[C@@H]5C[C@@H](O)[C@H](O)[C@@H](C)O5)[C@H](O)[C@@H](C)O4)c(C)c(O)c3c(O)c2C(=O)[C@H]1O[C@H]1C[C@@H](O[C@@H]2C[C@@H](O)[C@@H](O[C@@H]3C[C@](C)(O)[C@H](O)[C@@H](C)O3)[C@@H](C)O2)[C@H](O)[C@@H](C)O1 [PLICAMYCIN],60,70,50,–,–,–,–,–,–
> 50,C=C(C)[C@@H]1CC(=O)C[C@H]2C(=O)[C@@H]3[C@@H]4C(=C[C@@H]12)C(=O)O[C@@H]4C[C@]3(C)O,> 20000,> 20000,11800,inactive,inactive,inactive,inactive,inactive,inactive
